In experiment [1] the target is T1, OR51E2 (Homo sapiens, UniProt Q9H255).
T1 construct: OR51E2 plasmid transiently transfected into Hana3A cells with CREB-luciferase reporter
T1 sequence (Q9H255 1-320): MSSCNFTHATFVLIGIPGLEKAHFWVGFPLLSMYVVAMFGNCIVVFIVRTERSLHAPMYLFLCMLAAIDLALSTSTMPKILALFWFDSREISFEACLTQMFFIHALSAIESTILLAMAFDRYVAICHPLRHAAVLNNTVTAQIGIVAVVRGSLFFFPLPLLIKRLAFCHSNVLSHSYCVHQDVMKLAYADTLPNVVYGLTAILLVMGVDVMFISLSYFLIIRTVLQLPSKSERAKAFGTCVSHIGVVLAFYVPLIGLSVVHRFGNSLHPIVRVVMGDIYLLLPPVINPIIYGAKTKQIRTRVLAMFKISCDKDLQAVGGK
The experiment is described as follows: cAMP CRE-luciferase reporter assay in Hana3A cells. Format: cell-based. The following applies: agonist, M10d medium, read-out: EC50 (potency) /. (In a reporter assay the amount or activity of a reporter protein is the signal.)

Experiment [2] addresses T1, OR51E2. The experiment in a line: cAMP CRE-luciferase reporter assay in Hana3A cells. Conditions: agonist, M10d medium, max conc. 10 µM, below the EC50, unreliable. The format is cell-based. The source says:
cAMP CRE-luciferase reporter assay in Hana3A cells on OR51E2

pEC50: −log10 of the molar value. Where two headings read alike, the source gives them in different places. Where a SMILES comes first, the peptide text is derived from it. [ ]: non-standard residue; d: D form.

Take `CCCCCCCCCCCCCCCC(=O)O` [Palmitic acid]: the pEC50 in experiment [1] (max conc. 1 mM) is 8.01.
On to `C[C@@H](N)C(=O)N[C@H](C)C(=O)O` [D-Alanyl-D-alanine] (H-[dA]-[dA]-OH), for which, in experiment [1] (max conc. 3.16 mM), the pEC50 is 4.85.
With `Oc1ccc(-c2[o+]c3cc(O)cc(O)c3cc2O)cc1` [Pelargonidin], in experiment [1] (max conc. 100 µM), the pEC50 was 9.38.
The same measure, in the same setting: as for `O=C1CCCN1` [2-Pyrrolidinone], the figure is 8.72.
Take `CC(=O)N[C@@H](CCC(=O)O)C(=O)O` [N-Acetylglutamic acid]: in experiment [1] (max conc. 10 µM), the pEC50 is 9.64.
In the case of `O=C(O)[C@@H](O)CO` [L-Glyceric acid], in experiment [1] (max conc. 1 mM), the pEC50 is 8.72.
`COc1ccc(NC=O)c(C(=O)CCNC(C)=O)c1` [AFMK]: the pEC50 in experiment [1] (max conc. 3.16 mM) is 4.92.
On to `NC(N)=O` [Urea], for which the pEC50 in experiment [1] (max conc. 10 mM) was 7.64.
As for `COc1cc(CCC(=O)CC(=O)CCc2ccc(O)c(OC)c2)ccc1O` [Tetrahydrocurcumin], in experiment [1] (max conc. 316 µM), the pEC50 is 6.24.
In the case of `C[C@]12CC[C@@H]3c4ccc(O)cc4CC[C@H]3[C@@H]1C[C@@H](O)[C@@H]2O` [Estriol], the “EC50 (potency) /” value in experiment [2] came to 53000 nM.
Consider `O=C(O)C(=O)CO` [Hydroxypyruvic acid], for which, in experiment [1] (max conc. 316 µM), the pEC50 was 6.38.
As for `C[C@]12CC[C@H]3[C@@H](CCC4=CC(=O)CC[C@@]43CO)[C@@H]1CCC2=O` [19-OH AD, 19-hydroxyandrost-4-ene-3,17-dione], the pEC50 in experiment [1] (max conc. 10 µM) was 9.82.

Values taken from publication PMC5985834, “A Testosterone Metabolite 19-Hydroxyandrostenedione Induces Neuroendocrine Trans-Differentiation of Prostate Cancer Cells via an Ectopic Olfactory Receptor” (Frontiers in Oncology, 2018).
